According to ChEMBL document CHEMBL1143050, “QSAR study on permeability of hydrophobic compounds with artificial membranes” (Bioorg Med Chem, 2007):
Values joined by “and” are separate entries in the source; they are usually repeats but may differ in a detail not shown here. Identical values can stand only once. Residues, ends and D or L forms follow the SMILES beside them.

test: Permeability coefficient through artificial membrane in presence of unstirred water layer by PAMPA; settings: not given

First: CN1CCN(CC(=O)N2c3ccccc3C(=O)Nc3cccnc32)CC1 [PIRENZEPINE]
Second: COc1ccc([C@@H]2Sc3ccccc3N(CCN(C)C)C(=O)[C@@H]2OC(C)=O)cc1 [DILTIAZEM]
The LogP app of the first is lower: -6.05 for the first, -4.64 for the second.

First: C=CCc1ccccc1OCC(O)CNC(C)C (stereo unspecified) [ALPRENOLOL]
Second: CC(C)(C)NCC(O)COc1cccc2c1C[C@H](O)[C@H](O)C2 (stereo partly specified) [NADOLOL]
The LogP app of the first is higher: -4.7 for the first, -6.15 for the second.

First: O=C1NC(=O)C(c2ccccc2)(c2ccccc2)N1 [PHENYTOIN]
Second: c1ccc(-c2ccccc2)cc1 [BIPHENYL]
The LogP app of the first is higher: -4.41 for the first, -5.95 for the second.

Going from C[C@@H]1C[C@H]2[C@@H]3CCC4=CC(=O)C=C[C@]4(C)[C@@]3(F)[C@@H](O)C[C@]2(C)[C@@]1(O)C(=O)CO [DEXAMETHASONE] to Cc1cc(C)cc(C(=O)N(NC(=O)c2ccc3c(c2C)CCCO3)C(C)(C)C)c1 [CHROMAFENOZIDE], the LogP app rises from -5.37 to -4.78.

O=[N+]([O-])c1cc(Cl)ccc1Cl and Oc1ccc(O)cc1 [HYDROQUINONE] are within 0.2 log units of each other in LogP app: -5.11 for the first, -5.14 for the second.

Compared with NC(=O)[C@H](Cc1c[nH]c2ccccc12)NC(=O)[C@@H](N)Cc1ccccc1 (H-Phe-Trp-NH2), CC(=O)N[C@@H](Cc1c[nH]c2ccccc12)C(N)=O [ACETYLTRYPTOPHANAMIDE] is lower in LogP app: -5.22 for the first, -5.72 for the second.

CC(=O)N[C@@H](Cc1c[nH]c2ccccc12)C(=O)N[C@H](C(N)=O)C(C)C and O=C1CNC(=O)[C@H](Cc2c[nH]c3ccccc23)N1 are within 0.2 log units of each other in LogP app: -6.18 for the first, -6.02 for the second.

First: CCc1ccc(C)nc1
Second: COC(=O)c1ccccc1C(=O)OC [DIMETHYL PHTHALATE]
The LogP app of the first is lower: -5.55 for the first, -4.36 for the second.

First: CNC(=C[N+](=O)[O-])NCCSCc1ccc(CN(C)C)o1 [RANITIDINE]
Second: CC(CCc1ccccc1)NCC(O)c1ccc(O)c(C(N)=O)c1 (stereo unspecified) [LABETALOL]
The LogP app of the first is lower: -6.05 for the first, -5.18 for the second.

Molecule O=C1N[C@@H](Cc2c[nH]c3ccccc23)C(=O)N[C@H]1Cc1c[nH]c2ccccc12 has a LogP app of -5.04.

Going from C=CCc1ccccc1OCC(O)CNC(C)C (stereo unspecified) [ALPRENOLOL] to COC(=O)c1ccccc1C(=O)OC [DIMETHYL PHTHALATE], the Papp rises from 11.5 ×10⁻⁶ cm/s to 43.3 ×10⁻⁶ cm/s (3.8-fold).

Going from Cc1cc(C)cc(C(=O)N(NC(=O)c2ccc3c(c2C)CCCO3)C(C)(C)C)c1 [CHROMAFENOZIDE] to COc1ccc([C@@H]2Sc3ccccc3N(CCN(C)C)C(=O)[C@@H]2OC(C)=O)cc1 [DILTIAZEM], the Papp falls from 16.7 ×10⁻⁶ cm/s to 0.34 ×10⁻⁶ cm/s (49-fold).

O=[N+]([O-])c1cc(Cl)ccc1Cl and Oc1ccc(O)cc1 [HYDROQUINONE] are within 1.5-fold of each other in Papp: 7.78 ×10⁻⁶ cm/s for the first, 7.31 ×10⁻⁶ cm/s for the second.

Going from c1ccc(-c2ccccc2)cc1 [BIPHENYL] to CCc1ccc(C)nc1, the Papp rises from 1.12 ×10⁻⁶ cm/s to 2.85 ×10⁻⁶ cm/s (2.5-fold).

With C[C@]12CC[C@H]3[C@@H](CCC4=CC(=O)CC[C@@]43C)[C@@H]1CC[C@@H]2O [TESTOSTERONE] the LogP app was -4.95 and -4.77.

test: Intrinsic artificial membrane permeability coefficient, log P0 of the compound; format: ADME; settings: not given

Going from O=C(O)c1ccccc1O [SALICYLIC ACID] to CC(C(=O)O)c1cccc(C(=O)c2ccccc2)c1 (stereo unspecified) [KETOPROFEN], the logPm rises from -3.46 to -2.43.

Compared with C=CCc1ccccc1OCC(O)CNC(C)C (stereo unspecified) [ALPRENOLOL], COc1ccc([C@@H]2Sc3ccccc3N(CCN(C)C)C(=O)[C@@H]2OC(C)=O)cc1 [DILTIAZEM] is lower in logPm: -1.02 for the first, -1.85 for the second.

With CN1C(C(=O)Nc2ccccn2)=C(O)c2ccccc2S1(=O)=O [PIROXICAM] the logPm was -2.08.

test: Partition coefficient, log P of the compound; settings: octanol/water

Compared with CC(=O)N[C@@H](Cc1ccc(O)cc1)C(=O)N[C@@H](Cc1ccccc1)C(N)=O (Ac-Tyr-Phe-NH2), NC(=O)[C@H](Cc1c[nH]c2ccccc12)NC(=O)[C@@H](N)Cc1ccccc1 (H-Phe-Trp-NH2) is higher in logP: 0.54 for the first, 1.38 for the second.

Compared with CN1CCN(CC(=O)N2c3ccccc3C(=O)Nc3cccnc32)CC1 [PIRENZEPINE], CN1C(C(=O)Nc2ccccn2)=C(O)c2ccccc2S1(=O)=O [PIROXICAM] is higher in logP: 0.1 for the first, 1.98 for the second.

Compared with C=CCc1ccccc1OCC(O)CNC(C)C (stereo unspecified) [ALPRENOLOL], CC(C)(C)NCC(O)COc1cccc2c1C[C@H](O)[C@H](O)C2 (stereo partly specified) [NADOLOL] is lower in logP: 2.65 for the first, 0.71 for the second.

Going from O=C1NC(=O)C(c2ccccc2)(c2ccccc2)N1 [PHENYTOIN] to c1ccc(-c2ccccc2)cc1 [BIPHENYL], the logP rises from 2.26 to 4.01.

Going from C[C@@H]1C[C@H]2[C@@H]3CCC4=CC(=O)C=C[C@]4(C)[C@@]3(F)[C@@H](O)C[C@]2(C)[C@@]1(O)C(=O)CO [DEXAMETHASONE] to Cc1cc(C)cc(C(=O)N(NC(=O)c2ccc3c(c2C)CCCO3)C(C)(C)C)c1 [CHROMAFENOZIDE], the logP rises from 2.01 to 2.7.

First: O=[N+]([O-])c1cc(Cl)ccc1Cl
Second: CCc1ccc(C)nc1
The logP of the first is lower: 3.03 for the first, 3.3 for the second.

Compared with COc1ccc([C@@H]2Sc3ccccc3N(CCN(C)C)C(=O)[C@@H]2OC(C)=O)cc1 [DILTIAZEM], COC(=O)c1ccccc1C(=O)OC [DIMETHYL PHTHALATE] is lower in logP: 2.8 for the first, 1.56 for the second.

First: CC(=O)N[C@@H](Cc1c[nH]c2ccccc12)C(N)=O [ACETYLTRYPTOPHANAMIDE]
Second: CC(=O)N[C@@H](Cc1c[nH]c2ccccc12)C(=O)N[C@H](C(N)=O)C(C)C
The logP of the first is lower: 0.42 for the first, 0.73 for the second.

Compared with O=C1N[C@@H](Cc2c[nH]c3ccccc23)C(=O)N[C@H]1Cc1c[nH]c2ccccc12, O=C1CNC(=O)[C@H](Cc2c[nH]c3ccccc23)N1 is lower in logP: 2.04 for the first, 0.07 for the second.

test: Permeability coefficient through artificial membrane in presence of stirred water layer at 100 rpm stirring speed; format: ADME; settings: not given

Compared with CC(C(=O)O)c1cccc(C(=O)c2ccccc2)c1 (stereo unspecified) [KETOPROFEN], C[C@]12CC[C@H]3[C@@H](CCC4=CC(=O)CC[C@@]43C)[C@@H]1CC[C@@H]2O [TESTOSTERONE] is higher in LogP app: -5.55 for the first, -4.29 for the second.

test: Permeability coefficient through artificial membrane in presence of stirred water layer; settings: PAMPA

O=C(O)c1ccccc1O [SALICYLIC ACID] and Oc1ccc(O)cc1 [HYDROQUINONE] are within 0.2 log units of each other in LogP app: -5.31 for the first, -5.34 for the second.

First: c1ccc(-c2ccccc2)cc1 [BIPHENYL]
Second: CNC(=C[N+](=O)[O-])NCCSCc1ccc(CN(C)C)o1 [RANITIDINE]
The LogP app of the first is higher: -4.27 for the first, -5.52 for the second.

Going from O=C(O)c1ccccc1O [SALICYLIC ACID] to COC(=O)c1ccccc1C(=O)OC [DIMETHYL PHTHALATE], the Papp rises from 4.9 ×10⁻⁶ cm/s to 158 ×10⁻⁶ cm/s (32-fold).

First: CN1CCN(CC(=O)N2c3ccccc3C(=O)Nc3cccnc32)CC1 [PIRENZEPINE]
Second: CN1C(C(=O)Nc2ccccn2)=C(O)c2ccccc2S1(=O)=O [PIROXICAM]
The Papp of the first is 23-fold lower: 0.82 ×10⁻⁶ cm/s for the first, 19.2 ×10⁻⁶ cm/s for the second.

Compared with C=CCc1ccccc1OCC(O)CNC(C)C (stereo unspecified) [ALPRENOLOL], CC(C)(C)NCC(O)COc1cccc2c1C[C@H](O)[C@H](O)C2 (stereo partly specified) [NADOLOL] is 1.9-fold lower in Papp: 61.4 ×10⁻⁶ cm/s for the first, 32.7 ×10⁻⁶ cm/s for the second.

Compared with O=C1NC(=O)C(c2ccccc2)(c2ccccc2)N1 [PHENYTOIN], c1ccc(-c2ccccc2)cc1 [BIPHENYL] is 4.5-fold higher in Papp: 11.9 ×10⁻⁶ cm/s for the first, 53.3 ×10⁻⁶ cm/s for the second.

Going from C[C@@H]1C[C@H]2[C@@H]3CCC4=CC(=O)C=C[C@]4(C)[C@@]3(F)[C@@H](O)C[C@]2(C)[C@@]1(O)C(=O)CO [DEXAMETHASONE] to C[C@]12CC[C@H]3[C@@H](CCC4=CC(=O)CC[C@@]43C)[C@@H]1CC[C@@H]2O [TESTOSTERONE], the Papp rises from 11.3 ×10⁻⁶ cm/s to 136 ×10⁻⁶ cm/s (12-fold).

Going from O=[N+]([O-])c1cc(Cl)ccc1Cl to Oc1ccc(O)cc1 [HYDROQUINONE], the Papp falls from 80.7 ×10⁻⁶ cm/s to 4.6 ×10⁻⁶ cm/s (18-fold).

First: CCc1ccc(C)nc1
Second: CC(CCc1ccccc1)NCC(O)c1ccc(O)c(C(N)=O)c1 (stereo unspecified) [LABETALOL]
The Papp of the first is 2.3-fold higher: 12.9 ×10⁻⁶ cm/s for the first, 5.64 ×10⁻⁶ cm/s for the second.

For CNC(=C[N+](=O)[O-])NCCSCc1ccc(CN(C)C)o1 [RANITIDINE], the Papp was 3 ×10⁻⁶ cm/s.

same assay, conditions: artificial membrane

Compared with CN1CCN(CC(=O)N2c3ccccc3C(=O)Nc3cccnc32)CC1 [PIRENZEPINE], CN1C(C(=O)Nc2ccccn2)=C(O)c2ccccc2S1(=O)=O [PIROXICAM] is higher in LogP app: -6.09 for the first, -4.72 for the second.

First: C=CCc1ccccc1OCC(O)CNC(C)C (stereo unspecified) [ALPRENOLOL]
Second: CC(C)(C)NCC(O)COc1cccc2c1C[C@H](O)[C@H](O)C2 (stereo partly specified) [NADOLOL]
The LogP app of the first is higher: -4.21 for the first, -4.49 for the second.

First: O=C1NC(=O)C(c2ccccc2)(c2ccccc2)N1 [PHENYTOIN]
Second: CC(CCc1ccccc1)NCC(O)c1ccc(O)c(C(N)=O)c1 (stereo unspecified) [LABETALOL]
The LogP app of the first is higher: -4.93 for the first, -5.25 for the second.

Going from C[C@@H]1C[C@H]2[C@@H]3CCC4=CC(=O)C=C[C@]4(C)[C@@]3(F)[C@@H](O)C[C@]2(C)[C@@]1(O)C(=O)CO [DEXAMETHASONE] to C[C@]12CC[C@H]3[C@@H](CCC4=CC(=O)CC[C@@]43C)[C@@H]1CC[C@@H]2O [TESTOSTERONE], the LogP app rises from -4.95 to -3.87.

Compared with O=[N+]([O-])c1cc(Cl)ccc1Cl, CCc1ccc(C)nc1 is lower in LogP app: -4.09 for the first, -4.89 for the second.

In the case of COC(=O)c1ccccc1C(=O)OC [DIMETHYL PHTHALATE], the LogP app is reported as -3.8.

test: Permeability coefficient through artificial membrane in presence of stirred water layer at 250 rpm stirring speed; format: ADME; settings: not given

With C[C@]12CC[C@H]3[C@@H](CCC4=CC(=O)CC[C@@]43C)[C@@H]1CC[C@@H]2O [TESTOSTERONE] the LogP app was -3.87.

test: Permeability coefficient through artificial membrane in presence of stirred water layer at 200 rpm stirring speed; format: ADME; settings: not given

First: CC(C(=O)O)c1cccc(C(=O)c2ccccc2)c1 (stereo unspecified) [KETOPROFEN]
Second: C[C@]12CC[C@H]3[C@@H](CCC4=CC(=O)CC[C@@]43C)[C@@H]1CC[C@@H]2O [TESTOSTERONE]
The LogP app of the first is lower: -5.49 for the first, -4.08 for the second.
